Reference: PMC3083654, “Cytotoxic and Antimicrobial Activity of Pseudopterosins and seco-Pseudopterosins Isolated from the Octocoral Pseudopterogorgia elisabethae of San Andrés and Providencia Islands (Southwest Caribbean Sea)” (Marine Drugs, 2011)
Where two headings read alike, the source gives them in different places.

How the values were obtained:
HeLa (cervical cancer) = test: MTT cytotoxic assay, HeLa; assay type: cell-based; settings: Homo sapiens, 48 h
Description: (§1) The cell lines HeLa (cervical cancer), PC-3 (prostate cancer), HCT116 (colorectal cancer), MCF-7 (breast cancer) and normal human cell line BJ (skin fibroblasts) were used and maintained in DMEM with 5% of FBS and gentamicin 50 μg/mL. Cultures were held in 75 cm^2 culture flasks at 37 °C, 5% CO2 and 100% relative humidity, changing media at least twice a week.
(§2) Cells were harvested, counted, and transferred into 96 well plates and incubated for 24 h prior to the addition of the test compounds. Test sample solutions (10 μL) at the desired dilutions were added to the wells containing the cells and incubated for 48 h. Microtitration colorimetric method of MTT reduction was used to determine surviving cells at the end of the treatment period.
(§3) A solution of MTT (0.5 mg/mL) was prepared in PBS and 100 μL of this solution was added to each well after the removal of 100 μL of treatment solution. The plates were incubated at 37 °C for 4 h. The solution in each well, containing media, unmetabolized MTT, and dead cells, was removed by suction and 100 μL of DMSO was added to each well. The DMSO was mixed by pipetting and optical density was recorded using a BioTek Synergy HT microplate reader to measure the absorbance at 570 nm. Percentages of cell survival relative to vehicle control wells (wells containing only cells and DMSO) were calculated.
(§4) Stock solutions (5 mg/mL) were prepared by dissolving pure compounds in DMSO and storing at 4 °C. Serial dilutions with culture media were prepared just prior to addition to test plates. The concentration of DMSO in wells was consistent across dilutions at 0.38% v/v. Staurosporine was used as the positive control and vehicle (DMSO + media) as blank. Control and test compounds (PsG, PsP, PsQ, PsS, PsT, PsU, 3-O-Ac-PsU, seco-PsJ, seco-PsK and IMNGD) were assayed in duplicate for each concentration and replicated for each cell line at concentrations of 5000, 1000, 500, 100, 50, 10, 5 and 1 nM for staurosporine and 0.1, 0.5, 1.0, 2.5, 5.0, 7.5, 10.0, and 20.0 μg/mL for compounds.
(§5) Data were normalized and analyzed using non-linear regression to elucidate IC50 values from sigmoidal dose-response curves. Comparison between cell lines and microorganisms used extra sum-of-squares F test to evaluate IC50 between data sets. P < 0.05 was considered as indicative of significance using GraphPad Software, Prism V. 5.0.

PC-3 (prostate cancer) = test: MTT cytotoxic assay, PC-3; assay type: cell-based; settings: Homo sapiens, PC-3, 48 h
Description: as §1, §2, §3, §4, §5

[1] = system: HCT116 (colorectal cancer); test: MTT cytotoxic assay, HCT116; assay type: cell-based; settings: Homo sapiens, HCT-116, HCT116, 48 h
Description: as §1, §2, §3, §4, §5

MCF-7 (breast cancer) = test: MTT cytotoxic assay, MCF-7; assay type: cell-based; settings: Homo sapiens, MCF7, 48 h
Description: as §1, §2, §3, §4, §5

BJ (skin fibroblasts) = test: MTT cytotoxic assay, normal BJ cells; assay type: cell-based, human; settings: 48 h
Description: as §1, §2, §3, §4, §5

[2] = system: Staphylococcus aureus ATCC 375; test: Antimicrobial microdilution assay, S. aureus; assay type: cell-based; settings: ATCC375, 24 h
Description: (§6) Compounds isolated from P. elisabethae were tested against a panel of microorganisms including the bacteria Staphylococcus aureus ATCC 375, Enterococcus faecalis ATCC 10741, Pseudomonas aeruginosa ATCC 14210 and the yeast Candida albicans ATCC 14035. Bacterial strains were cultured in Luria-Bertani Broth (LB) and C. albicans was cultured in Sabouraud dextrose broth (SD), for 18 h at 37 °C and 220 rpm in a humidified incubator.
(§7) The antimicrobial activity was determined by a microdilution method (IC50) in 96-well microtiter plates using LB media for bacteria and SD media for the yeast seeded liquid media. In all cases, a pre-inoculated dilution was made with fresh broth. A volume of 180 μL of each microorganism suspension was inoculated in each well (10^5 cells/mL) and mixed with 20 μL of treatment solutions. Stock solutions were prepared by dissolving pure compounds and controls in 20% DMSO and storing at 4 °C. Penicillin G (S. aureus), vancomycin (E. faecalis), gentamicin (P. aeruginosa) and nystatin (C. albicans) were used as positive controls and vehicle (DMSO + media) as blank. The final DMSO concentration used for dissolving the extracts was less than 20%. Controls and test compounds (PsG, PsP, PsQ, PsS, PsT, PsU, 3-O-Ac-PsU, seco-PsJ, seco-PsK and IMNGD) were assayed in duplicate for each of the following concentrations: 64.0, 32.0, 16.0, 4.0, 1.0, 0.25 and 0.06 μg/mL.
(§8) Microplates were incubated for 24 h at 37 °C and optical density was recorded using a BioTek Synergy HT microplate reader to measure the absorbance at 600 nm. For each experiment, correction for background absorbance was made by subtracting the value for OD600 after the compounds were added (time 0 h). Percentages of microorganism survival relative to vehicle control wells (wells containing only microorganism and DMSO) were calculated. The IC50 of the controls were also determined in parallel experiments in order to control for the sensitivity of the standard test organisms.
as §5

[3] = system: Enterococcus faecalis ATCC 10741; test: Antimicrobial microdilution assay, E. faecalis; assay type: cell-based
Description: as §6, §7, §8, §5

[4] = Enterococcus faecalis, ATCC10741, E. faecalis, microdilution, 24 h, read-out: IC50 ± S.E

SMILES	GI50 (HeLa (cervical cancer))	GI50 (PC-3 (prostate cancer))	GI50 [1]	GI50 (MCF-7 (breast cancer))	GI50 (BJ (skin fibroblasts))	GI50 (BJ (skin fibroblasts); listed as 3-O-acetyl-PsU)	IC50 [2]	IC50 [3, 4]	GI50 (BJ (skin fibroblasts); Homo sapiens, Skin fibroblast)	GI50 (HeLa (cervical cancer); footnote ** unit)	GI50 (PC-3 (prostate cancer); footnote ** unit)	GI50 ([1]; footnote ** unit)	GI50 (MCF-7 (breast cancer); footnote ** unit)	GI50 (BJ (skin fibroblasts); Homo sapiens, Skin fibroblast, footnote ** unit)	IC50 ([3]; Enterococcus faecalis, ATCC10741, 24 h, read-out: IC50 ± S.E, E. faecalis, microdilution, 24 h)	IC50 ([3]; read-out: IC50 ± S.E, E. faecalis, microdilution, 24 h)
CC(=O)OC1COC(Oc2c(C)c3c4c(c2O)C(C)CCC4C(C)CC3C=C(C)C)C(O)C1OC(C)=O (centres unmarked) [3-O-Ac-PsU]	44.61 ± 0.35 µM	26.4 ± 0.31 µM	20.5 ± 0.48 µM	83.93 ± 0.39 µM	62.03 ± 0.45 µM	> 10 µM	20.23 ± 0.19 µM	7.64 ± 0.16 µM								
CC1(C)S[C@@H]2[C@H](NC(=O)Cc3ccccc3)C(=O)N2[C@H]1C(=O)O [Penicillin G, penicillin G, reference compound]							1.61 ± 0.08 µM									
CC(C)=C[C@@H]1C[C@H](C)[C@H]2CC[C@H](C)c3c(O[C@@H]4O[C@@H](C)[C@@H](O)[C@@H](O)[C@@H]4O)c(O)c(C)c1c32 [PsG]	9.22 ± 0.45 µM	8.83 ± 0.54 µM	12 ± 0.36 µM	9.42 ± 0.43 µM			4.48 ± 0.18 µM	3.14 ± 0.22 µM	7.62 ± 0.38 µM							
CC(C)=C[C@@H]1C[C@H](C)[C@H]2CC[C@H](C)c3c(O)c(O[C@@H]4O[C@@H](C)[C@@H](O)[C@@H](O)[C@@H]4O)c(C)c1c32 [PsP]	10.3 ± 0.49 µM	13.8 ± 0.58 µM	17.9 ± 0.45 µM	12.6 ± 0.45 µM	10.4 ± 0.42 µM		14.9 ± 0.2 µM	37.35 ± 0.29 µM	> 10 µM							
CC(=O)O[C@H]1[C@@H](O)[C@H](O)[C@H](Oc2c(C)c3c4c(c2O)[C@@H](C)CC[C@@H]4[C@@H](C)C[C@H]3C=C(C)C)O[C@H]1C [PsQ]	5.82 ± 0.33 µM	7.81 ± 0.35 µM	7.66 ± 0.27 µM	8.44 ± 0.41 µM			3.3 ± 0.2 µM	7.38 ± 0.16 µM	4.47 ± 0.31 µM							
CC(=O)O[C@@H]1[C@H](Oc2c(C)c3c4c(c2O)[C@@H](C)CC[C@@H]4[C@@H](C)C[C@H]3C=C(C)C)O[C@@H](C)[C@@H](O)[C@H]1O [PsS]	13.8 ± 0.39 µM	52.05 ± 0.31 µM	33.5 ± 0.33 µM	26.2 ± 0.45 µM			3.89 ± 0.23 µM	20.2 ± 0.25 µM								
CC(C)=C[C@@H]1C[C@H](C)[C@H]2CC[C@H](C)c3c(O)c(O[C@@H]4OC[C@@H](O)[C@@H](O)[C@@H]4O)c(C)c1c32 [PsT]	14.6 ± 0.35 µM	22 ± 0.46 µM	24.2 ± 0.42 µM	14.7 ± 0.46 µM	12.9 ± 0.37 µM		5.39 ± 0.25 µM	4.38 ± 0.16 µM	> 10 µM							
CC(=O)OC1COC(Oc2c(C)c3c4c(c2O)C(C)CCC4C(C)CC3C=C(C)C)C(O)C1O (centres unmarked) [PsU]	15.6 ± 0.32 µM	24.8 ± 0.34 µM	23.4 ± 0.4 µM	26.5 ± 0.46 µM			2.97 ± 0.17 µM	3.19 ± 0.25 µM	9.35 ± 0.34 µM							
CN[C@@H]1C[C@H]2O[C@@](C)([C@@H]1OC)n1c3ccccc3c3c4c(c5c6ccccc6n2c5c31)C(=O)NC4 [Staurosporine, staurosporine, reference compound]										0.1056 ± 0.00041 µM	0.06182 ± 0.00038 µM	0.04556 ± 0.00045 µM	0.1766 ± 0.00038 µM	0.0136 ± 0.00035 µM		
CN[C@H](CC(C)C)C(=O)N[C@H]1C(=O)N[C@@H](CC(N)=O)C(=O)N[C@H]2C(=O)N[C@H]3C(=O)N[C@H](C(=O)N[C@H](C(=O)O)c4cc(O)cc(O)c4-c4cc3ccc4O)[C@H](O)c3ccc(c(Cl)c3)Oc3cc2cc(c3O[C@@H]2O[C@H](CO)[C@@H](O)[C@H](O)[C@H]2O[C@H]2C[C@](C)(N)[C@H](O)[C@H](C)O2)Oc2ccc(cc2Cl)[C@H]1O [Vancomycin, vancomycin, reference compound]															4.2 µM	4.21 ± 0.11 µM
CC(C)=CCC[C@H](C)[C@H]1CC[C@H](C)c2c1cc(C)c(O[C@@H]1OC[C@@H](O)[C@@H](O)[C@@H]1O)c2O [seco-PsJ]	21.1 ± 0.37 µM	37.2 ± 0.41 µM	31.7 ± 0.32 µM	28 ± 0.51 µM	15 ± 0.35 µM		6.52 ± 0.12 µM	4.08 ± 0.19 µM	> 10 µM							
CC(C)=CCC[C@H](C)[C@H]1CC[C@H](C)c2c1cc(C)c(O[C@@H]1O[C@@H](C)[C@@H](O)[C@@H](O)[C@@H]1O)c2O [seco-PsK]	15.8 ± 0.18 µM	13.6 ± 0.38 µM	13.3 ± 0.27 µM	11.5 ± 0.36 µM			4.2 ± 0.16 µM	3.82 ± 0.21 µM	8.28 ± 0.29 µM							
